Data: ChEMBL document CHEMBL1147717, “Development of activity-based probes for trypsin-family serine proteases” (Bioorg Med Chem Lett, 2006)

Experiments:
Trypsin = Trypsin (Homo sapiens, UniProt P07477+P07478+P35030); assay: Inhibition of trypsin; format: protein assay
Prothrombin = Prothrombin (Homo sapiens, UniProt P00734); assay: Inhibition of thrombin; details: read-out: Ki app
Plasminogen = Plasminogen (Homo sapiens, UniProt P00747); assay: Inhibition of plasmin; details: read-out: Ki app
Tryptase beta-1 = Tryptase beta-1 (Homo sapiens, UniProt Q15661); assay: Inhibition of beta tryptase; details: read-out: Ki app
Sequence of Tryptase beta-1 (Q15661 whole entry): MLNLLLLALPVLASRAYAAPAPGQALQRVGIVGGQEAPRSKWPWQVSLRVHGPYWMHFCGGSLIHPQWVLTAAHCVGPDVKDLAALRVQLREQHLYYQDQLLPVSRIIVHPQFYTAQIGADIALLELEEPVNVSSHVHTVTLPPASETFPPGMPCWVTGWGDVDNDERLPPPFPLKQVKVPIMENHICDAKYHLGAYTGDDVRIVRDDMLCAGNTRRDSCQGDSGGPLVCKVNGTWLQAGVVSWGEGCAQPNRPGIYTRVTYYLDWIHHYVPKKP

Sequence of Plasminogen (P00747 97-580 limits assumed): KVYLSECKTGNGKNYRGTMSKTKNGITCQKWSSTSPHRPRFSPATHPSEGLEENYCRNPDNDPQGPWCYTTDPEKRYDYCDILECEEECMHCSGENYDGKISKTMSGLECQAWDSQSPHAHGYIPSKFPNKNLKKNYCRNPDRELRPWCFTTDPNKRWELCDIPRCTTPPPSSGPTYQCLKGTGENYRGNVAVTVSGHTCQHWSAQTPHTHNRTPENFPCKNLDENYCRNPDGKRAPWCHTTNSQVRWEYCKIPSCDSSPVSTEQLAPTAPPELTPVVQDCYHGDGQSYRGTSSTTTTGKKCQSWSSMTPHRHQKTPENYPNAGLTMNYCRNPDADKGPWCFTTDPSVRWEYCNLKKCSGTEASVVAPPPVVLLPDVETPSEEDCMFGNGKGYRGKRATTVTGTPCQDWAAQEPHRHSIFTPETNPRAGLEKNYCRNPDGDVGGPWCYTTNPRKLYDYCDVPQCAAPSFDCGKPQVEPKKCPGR
Sequence of Plasminogen (P00747 581-810 limits assumed): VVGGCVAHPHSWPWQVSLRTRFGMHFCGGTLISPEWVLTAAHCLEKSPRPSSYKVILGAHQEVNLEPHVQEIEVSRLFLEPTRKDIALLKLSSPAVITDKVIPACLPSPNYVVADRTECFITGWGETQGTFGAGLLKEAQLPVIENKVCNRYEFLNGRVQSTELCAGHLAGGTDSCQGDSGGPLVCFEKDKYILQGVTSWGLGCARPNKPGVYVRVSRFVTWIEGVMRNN

Row | SMILES | Ki app (Trypsin) [µM] | Ki (Prothrombin) [µM] | Ki (Plasminogen) [µM] | Ki (Tryptase beta-1) [µM]
1 | NCCCC[C@@H](NC(=O)[C@@H]1CCCN1C(=O)CCOCCOCCOCCOCCNC(=O)CCCC[C@@H]1SC[C@@H]2NC(=O)N[C@@H]21)P(=O)(Oc1ccccc1)Oc1ccccc1 | 0.57 | 1.07 | 2.9 | 6.2
2 | NCCCC[C@@H](NC(=O)[C@H](CC(N)=O)NC(=O)CCOCCOCCOCCOCCNC(=O)CCCC[C@@H]1SC[C@@H]2NC(=O)N[C@@H]21)P(=O)(Oc1ccccc1)Oc1ccccc1 | 57.3 | > 100 | 4.03 | 2.5
